Laboratory results: ChEMBL document CHEMBL1142344, “Rapid assembly of diverse and potent allosteric Akt inhibitors” (Bioorg Med Chem Lett, 2008)

Tests used:
[1] = target: T1, RAC-alpha serine/threonine-protein kinase (Homo sapiens, UniProt P31749); experiment: Inhibition of human recombinant Akt1
[2] = target: T2, RAC-beta serine/threonine-protein kinase (Homo sapiens, UniProt P31751); experiment: Inhibition of human recombinant Akt2
[3] = Clearance in dog at 0.25 mg/kg, iv; format: ADME, organism-based, Canis lupus familiaris; parameters: dose 0.25 mg/kg, route intravenous; settings: in vivo
[4] = Half life in dog at 0.25 mg/kg, iv; format: ADME, organism-based, Canis lupus familiaris; parameters: dose 0.25 mg/kg, route intravenous; settings: in vivo
[5] = target: T1, RAC-alpha serine/threonine-protein kinase; experiment: Inhibition of Akt1 phosphorylation in human C33a cells; format: cell-based
[6] = target: T2, RAC-beta serine/threonine-protein kinase; experiment: Inhibition of Akt2 phosphorylation in human C33a cells; format: cell-based

T1 sequence (P31749 whole entry): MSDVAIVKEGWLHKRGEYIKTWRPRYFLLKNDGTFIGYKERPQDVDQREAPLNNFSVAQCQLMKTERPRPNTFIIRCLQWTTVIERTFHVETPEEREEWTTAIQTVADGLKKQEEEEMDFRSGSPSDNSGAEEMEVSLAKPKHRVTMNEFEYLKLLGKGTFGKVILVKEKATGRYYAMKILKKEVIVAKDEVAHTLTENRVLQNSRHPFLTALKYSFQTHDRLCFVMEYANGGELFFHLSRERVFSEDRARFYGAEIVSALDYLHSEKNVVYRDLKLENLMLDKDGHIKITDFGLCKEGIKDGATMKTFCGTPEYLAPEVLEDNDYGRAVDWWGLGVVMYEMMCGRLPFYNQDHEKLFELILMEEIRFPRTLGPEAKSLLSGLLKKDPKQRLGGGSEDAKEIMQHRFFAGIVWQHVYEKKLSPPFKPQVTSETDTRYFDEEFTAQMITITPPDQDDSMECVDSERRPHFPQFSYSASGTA
T2 sequence (P31751 whole entry): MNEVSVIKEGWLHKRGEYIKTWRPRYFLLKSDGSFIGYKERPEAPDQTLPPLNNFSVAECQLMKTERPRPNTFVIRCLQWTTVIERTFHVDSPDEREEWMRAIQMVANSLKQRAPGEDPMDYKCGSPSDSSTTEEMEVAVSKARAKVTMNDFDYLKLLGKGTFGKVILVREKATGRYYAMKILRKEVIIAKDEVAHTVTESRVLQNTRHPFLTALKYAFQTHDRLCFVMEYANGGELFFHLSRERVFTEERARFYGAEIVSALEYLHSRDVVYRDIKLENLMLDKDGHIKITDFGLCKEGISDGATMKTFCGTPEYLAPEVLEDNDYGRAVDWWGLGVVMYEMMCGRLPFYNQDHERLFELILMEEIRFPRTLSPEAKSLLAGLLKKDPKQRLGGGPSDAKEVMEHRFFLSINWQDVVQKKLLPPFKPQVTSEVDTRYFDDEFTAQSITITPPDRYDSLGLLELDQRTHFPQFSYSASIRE

clearance [3] [mL/min/kg]	half-life [4] [h]	SMILES	IC50 [1] [nM]	IC50 [2] [nM]	IC50 [5] [nM]	IC50 [6] [nM]
		Nc1n[nH]c2nc(-c3ccc(CN4CCC(n5c(=O)[nH]c6ccccc65)CC4)cc3)c(-c3ccccc3)cc12	86	7360		
		CN(C)c1nc(-c2ccc(CN3CCC(n4c(=O)[nH]c5ccccc54)CC3)cc2)c(-c2ccccc2)cc1C#N	8460	15400		
5.6	2.8	Nc1ncnc2nc(-c3ccc(CN4CCC(c5nc6ccc(F)cc6[nH]5)CC4)cc3)c(-c3ccccc3)cc12				
		COc1nc(-c2ccc(CN3CCC(n4c(=O)[nH]c5ccccc54)CC3)cc2)c(-c2ccccc2)cc1C#N	5550	37700		
		Nc1ncnc2nc(-c3ccc(CN4CCC(n5c(=O)[nH]c6ccccc65)CC4)cc3)c(-c3ccccc3)cc12	81	259	1830	5080
		Nc1nn(CCO)c2nc(-c3ccc(CN4CCC(n5c(=O)[nH]c6ccccc65)CC4)cc3)c(-c3ccccc3)cc12	131	1230		
		CNc1nc(-c2ccc(CN3CCC(n4c(=O)[nH]c5ccccc54)CC3)cc2)c(-c2ccccc2)cc1C#N	2250	8140		
		Cc1nc2ccccc2n1C1CCN(Cc2ccc(-c3nc4ncnc(N)c4cc3-c3ccccc3)cc2)CC1	69	281	221	344
		Nc1ncnc2nc(-c3ccc(CN4CCC(n5cnc6c(N)ncnc65)CC4)cc3)c(-c3ccccc3)cc12	129	696		
		Nc1nn(CCc2c[nH]cn2)c2nc(-c3ccc(CN4CCC(n5c(=O)[nH]c6ccccc65)CC4)cc3)c(-c3ccccc3)cc12	21	839		
		Nc1ncnc2nc(-c3ccc(CN4CCC(c5cc(-c6ccncc6)[nH]n5)CC4)cc3)c(-c3ccccc3)cc12	21	85	463	1200
		N#Cc1cc(-c2ccccc2)c(-c2ccc(CN3CCC(n4c(=O)[nH]c5ccccc54)CC3)cc2)nc1Cl	253	7360		
		Cn1nc(N)c2cc(-c3ccccc3)c(-c3ccc(CN4CCC(n5c(=O)[nH]c6ccccc65)CC4)cc3)nc21	121	556		
		Nc1nc(N)c2cc(-c3ccccc3)c(-c3ccc(CN4CCC(n5c(=O)[nH]c6ccccc65)CC4)cc3)nc2n1	107	274		
		N#Cc1cc(-c2ccccc2)c(-c2ccc(CN3CCC(n4c(=O)[nH]c5ccccc54)CC3)cc2)nc1N	495	2060		
		Nc1nc(O)nc2nc(-c3ccc(CN4CCC(n5c(=O)[nH]c6ccccc65)CC4)cc3)c(-c3ccccc3)cc12	244	577		
